The results in this text go back to patent US11696913B2, “Prolonged ectoparasite-controlling agent for animal” (MITSUI CHEMICALS AGRO, INC., priority 2017, dated 2023).

In one assay the test system is Laodelphax striatellus. The assay can be described thus: Insecticidal testing against small brown planthopper. The assay is classed as in vivo. The note with it: 144 h, concentration 100 ppm, sprayed rice seedlings, after 6 days, read-out: pesticidal rate. A digest of the protocol: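 Acetone solution of compound at a set concentration sprayed onto rice seedlings, air-dried, then exposed to 10 planthoppers (one group). Held at 25° C; survival rate recorded after 6 days.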

The test system of the next assay is Ixodes ricinus. The assay can be described thus: In vitro contact test with adult hard ticks (Ixodes ricinus). As to conditions: read-out: acaricidal activity; for pest or weed control at 0.2 µg/cm2, 0.2 µg/cm2: dose 0.2 μg/cm^2, 48 h; for pest or weed control at 1 µg/cm2, 1 µg/cm2: dose 1 μg/cm^2, 48 h; for pest or weed control at 5 µg/cm2, 5 µg/cm2: dose 5 μg/cm^2, 48 h. A digest of the protocol: (§1)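 Adult R. sanguineus, I. ricinus, D. variabilis or A. americanum nymphs exposed in glass vials coated with compound from acetone (900 ppm gives 5 μg/cm^2). Held 48 h at room temperature (R. sanguineus) or 21° C., 85% rel. hum.; then heated at 45-50° C. ≤5 min, motionless or uncoordinated ticks scored dead/moribund.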

Another assay has as its system Amblyomma americanum. The assay can be described thus: In vitro contact test with hard ticks (Amblyomma americanum nymphs). As to conditions: read-out: acaricidal activity; for pest or weed control at 0.2 µg/cm2, 0.2 µg/cm2: dose 0.2 μg/cm^2, 48 h; for pest or weed control at 1 µg/cm2, 1 µg/cm2: dose 1 μg/cm^2, 48 h. Summed up:
as §1

In another assay the test system is Dermacentor variabilis. Kind of assay: In vitro contact test with adult hard ticks (Dermacentor variabilis). As to conditions: read-out: acaricidal activity; for pest or weed control at 0.04 µg/cm2, 0.04 µg/cm2: dose 0.04 μg/cm^2, 48 h; for pest or weed control at 0.2 µg/cm2, 0.2 µg/cm2: dose 0.2 μg/cm^2, 48 h; for pest or weed control at 1 µg/cm2, 1 µg/cm2: dose 1 μg/cm^2, 48 h. A digest of the protocol: as §1

For assay [1], the system named is Ctenocephalides felis. The assay can be described thus: Ctenocephalides felis in-vitro feeding test with fleas (CTECFE oral). The note with it: 48 hours, read-out: insecticidal feeding activity; for pest or weed control at 0.0064 ppm: dose 0.0064 ppm in citrated cattle blood; for pest or weed control at 0.032 ppm: dose 0.032 ppm in citrated cattle blood; for pest or weed control at 0.16 ppm: dose 0.16 ppm in citrated cattle blood; for pest or weed control at 0.8 ppm: dose 0.8 ppm in citrated cattle blood; for pest or weed control at 4 ppm: dose 4 ppm in citrated cattle blood. A digest of the protocol: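 About 20 unfed adult cat fleas fed through parafilm on citrated cattle blood containing test substance (DMSO solution diluted in blood), held at about 37° C. Kill rate scored after 48 hours, 100% meaning all fleas dead.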

Assay [2] deals with Rhipicephalus (Boophilus) microplus. Kind of assay: In vitro injection test with Rhipicephalus (Boophilus) microplus (BOOPMI Inj). As to conditions: 168 h, laid fertile eggs after 7 days, read-out: acaricidal activity; for pest or weed control at 32 ng: dose 0.032 μg/animal injected; for pest or weed control at 0.00016 mg: dose 0.16 μg/animal injected; for pest or weed control at 0.0008 mg: dose 0.8 μg/animal injected. Summed up: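 Test substance in DMSO; 1 μl injected into abdomen of each of 5 engorged adult female ticks, then held at 28° C., 85% rel. hum. Activity scored after 7 days from laying of fertile eggs: 100% = no eggs or all infertile, 0% = all eggs fertile.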

Assay [3] deals with Ctenocephalides felis. The assay can be described thus: In vitro contact test with fleas. As to conditions: read-out: insecticidal activity; for pest or weed control at 0.04 µg/cm2, 0.04 µg/cm2: dose 0.04 μg/cm^2, dead or moribund fleas after 48 h; for pest or weed control at 0.2 µg/cm2, 0.2 µg/cm2: dose 0.2 μg/cm^2, dead or moribund fleas after 48 h; for pest or weed control at 1 µg/cm2, 1 µg/cm2: dose 1 μg/cm^2, dead or moribund fleas after 48 h. A digest of the protocol:
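Adult male and female cat fleas (5-10 per tube) placed in glass tubes coated with compound from acetone solution (900 ppm gives 5 μg/cm^2), kept at room temperature and ambient humidity. After 48 h, motionless or uncoordinated fleas scored dead or moribund; activity expressed as % dead or moribund.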

Another assay has as its system Rhipicephalus sanguineus. Kind of assay: In vitro contact test with adult hard ticks (Rhipicephalus sanguineus). As to conditions: read-out: acaricidal activity; for pest or weed control at 0.2 µg/cm2, 0.2 µg/cm2: dose 0.2 μg/cm^2, 48 h; for pest or weed control at 1 µg/cm2, 1 µg/cm2: dose 1 μg/cm^2, 48 h. A digest of the protocol: as §1
The test system of a further assay is Plutella xylostella. Kind of assay: Insecticidal testing against diamondback moth. The assay is classed as in vivo. The note with it: foliar, 144 h, concentration 100 ppm, cabbage leaf dip, third-stage larvae, after 6 days, read-out: pesticidal rate. The text has this: Insecticidal Testing Against Diamondback Moth (Plutella xylostella)
For a further assay, the system named is Spodoptera litura. The assay can be described thus: Insecticidal testing against common cutworm. The assay is classed as in vivo. As to conditions: foliar, 144 h, concentration 100 ppm, cabbage leaf dip, second-stage larvae, after 6 days, read-out: pesticidal rate. The text has this: Insecticidal Testing Against Common Cutworm (Spodoptera litura)

As to `O=C(Nc1cccc(C(=O)Nc2c(Br)cc(C(F)(C(F)(F)F)C(F)(F)C(F)(F)F)cc2OC(F)F)c1F)c1ccc(F)cc1` (stereo not drawn) [Compound 106], the pest or weed control at 100 ppm with Laodelphax striatellus is at least 70%. For the same compound, in the assay with Ixodes ricinus, the pest or weed control at 0.2 µg/cm2, 0.2 µg/cm2 was found to be 90%; the pest or weed control at 1 µg/cm2, 1 µg/cm2 is 90%; the pest or weed control at 5 µg/cm2, 5 µg/cm2 came to 90%. Further, in the assay on Amblyomma americanum (dose 0.04 μg/cm^2, 48 h), the pest or weed control at 0.04 µg/cm2, 0.04 µg/cm2 stood at 90%. In the assay with Amblyomma americanum, the pest or weed control at 0.2 µg/cm2, 0.2 µg/cm2 stood at 90% and the pest or weed control at 1 µg/cm2, 1 µg/cm2 was found to be 90%. Moreover, in the assay on Dermacentor variabilis, the pest or weed control at 0.04 µg/cm2, 0.04 µg/cm2 amounted to 90%; the pest or weed control at 0.2 µg/cm2, 0.2 µg/cm2 was 90%; the pest or weed control at 1 µg/cm2, 1 µg/cm2 was 90%. Further, in the assay with Ctenocephalides felis [1], the pest or weed control at 0.0064 ppm turned out to be 95%, the pest or weed control at 0.032 ppm came to 95%, the pest or weed control at 0.16 ppm was 95% and the pest or weed control at 0.8 ppm was 95%. In addition, the pest or weed control at 4 ppm in the assay on Ctenocephalides felis [1] was 95%. In addition, in assay [2] (dose 0.0064 μg/animal injected), the pest or weed control at 6.4 ng amounted to 100%. Besides, in [2], the pest or weed control at 32 ng turned out to be 100%, the pest or weed control at 0.00016 mg was determined as 100% and the pest or weed control at 0.0008 mg stood at 100%. In the assay on Ctenocephalides felis [3], the pest or weed control at 0.04 µg/cm2, 0.04 µg/cm2 stood at 95%; the pest or weed control at 0.2 µg/cm2, 0.2 µg/cm2 turned out to be 95%; the pest or weed control at 1 µg/cm2, 1 µg/cm2 was 95%. Also, in the assay with Rhipicephalus sanguineus (dose 0.04 μg/cm^2, 48 h), the pest or weed control at 0.04 µg/cm2, 0.04 µg/cm2 is 90%. In the assay on Rhipicephalus sanguineus, the pest or weed control at 0.2 µg/cm2, 0.2 µg/cm2 was 90% and the pest or weed control at 1 µg/cm2, 1 µg/cm2 is 90%. Further, the pest or weed control at 100 ppm in the assay on Plutella xylostella was at least 70%. Also, in the assay with Spodoptera litura, the pest or weed control at 100 ppm was at least 70%.
For `O=C(Nc1cccc(C(=O)Nc2c(I)cc(C(F)(C(F)(F)F)C(F)(F)F)cc2C(F)(F)F)c1F)c1ccc(C(F)F)nc1` [Compound 85], in the assay with Laodelphax striatellus, the pest or weed control at 100 ppm is at least 70%. Besides, in the assay on Ixodes ricinus, the pest or weed control at 0.2 µg/cm2, 0.2 µg/cm2 came out at 90%; the pest or weed control at 1 µg/cm2, 1 µg/cm2 is 90%; the pest or weed control at 5 µg/cm2, 5 µg/cm2 amounted to 90%. In the assay with Amblyomma americanum, the pest or weed control at 0.2 µg/cm2, 0.2 µg/cm2 worked out at 90% and the pest or weed control at 1 µg/cm2, 1 µg/cm2 was determined as 90%. Also, in the assay with Dermacentor variabilis, the pest or weed control at 0.04 µg/cm2, 0.04 µg/cm2 is 90%; the pest or weed control at 0.2 µg/cm2, 0.2 µg/cm2 was 90%; the pest or weed control at 1 µg/cm2, 1 µg/cm2 turned out to be 90%. In the assay with Ctenocephalides felis [1], the pest or weed control at 0.0064 ppm amounted to 95%, the pest or weed control at 0.032 ppm was determined as 95%, the pest or weed control at 0.16 ppm stood at 95% and the pest or weed control at 0.8 ppm amounted to 95%. In addition, in the assay with Ctenocephalides felis [1], the pest or weed control at 4 ppm is 95%. In assay [2], the pest or weed control at 32 ng was found to be 100%, the pest or weed control at 0.00016 mg amounted to 100% and the pest or weed control at 0.0008 mg stood at 100%. In the assay on Ctenocephalides felis [3], the pest or weed control at 0.04 µg/cm2, 0.04 µg/cm2 is 95%; the pest or weed control at 0.2 µg/cm2, 0.2 µg/cm2 was 95%; the pest or weed control at 1 µg/cm2, 1 µg/cm2 is 95%. Further, in the assay with Rhipicephalus sanguineus, the pest or weed control at 0.2 µg/cm2, 0.2 µg/cm2 was determined as 90% and the pest or weed control at 1 µg/cm2, 1 µg/cm2 was determined as 90%. For the same compound, the pest or weed control at 100 ppm in the assay on Plutella xylostella was at least 70%. The pest or weed control at 100 ppm with Spodoptera litura is at least 70%.
As for `N#Cc1ccc(C(=O)Nc2cccc(C(=O)Nc3c(I)cc(C(F)(C(F)(F)F)C(F)(F)F)cc3C(F)(F)F)c2F)cn1` [Compound 79], the pest or weed control at 100 ppm in the assay on Laodelphax striatellus is at least 70%. Further, in the assay on Ixodes ricinus, the pest or weed control at 1 µg/cm2, 1 µg/cm2 came to 90% and the pest or weed control at 5 µg/cm2, 5 µg/cm2 came to 90%. Also, in the assay with Amblyomma americanum, the pest or weed control at 0.2 µg/cm2, 0.2 µg/cm2 came out at 90% and the pest or weed control at 1 µg/cm2, 1 µg/cm2 was found to be 90%. Further, in the assay on Dermacentor variabilis, the pest or weed control at 1 µg/cm2, 1 µg/cm2 came out at 90%. Besides, in the assay with Ctenocephalides felis [1], the pest or weed control at 0.16 ppm came out at 95%, the pest or weed control at 0.8 ppm was 95% and the pest or weed control at 4 ppm stood at 95%. Moreover, in assay [2], the pest or weed control at 32 ng came to 100%, the pest or weed control at 0.00016 mg was 100% and the pest or weed control at 0.0008 mg turned out to be 100%. In the assay on Ctenocephalides felis [3], the pest or weed control at 0.2 µg/cm2, 0.2 µg/cm2 was 95% and the pest or weed control at 1 µg/cm2, 1 µg/cm2 stood at 95%. In addition, in the assay on Rhipicephalus sanguineus, the pest or weed control at 0.2 µg/cm2, 0.2 µg/cm2 was determined as 90% and the pest or weed control at 1 µg/cm2, 1 µg/cm2 was determined as 90%. For the same compound, in the assay on Plutella xylostella, the pest or weed control at 100 ppm was at least 70%. In addition, in the assay with Spodoptera litura, the pest or weed control at 100 ppm is at least 70%.
